Experimental findings from patent publication US7615628B2, “Imidazopyridine derivatives” (Riken, priority 2005, dated 2009) are described below.

Test [1] concerns human fetal lung fibroblast (normal diploid fibroblast) WI-38 cells. Description: MTT assay, cell growth inhibitory activity on normal cells. The test is classed as cell-based. The following applies: 72 hours incubation at 37° C., WI-38 normal cells, value ± standard deviation. The method, then:
MTT assay was performed to examine two test compounds, i.e., 7-(2-thienyl)-3-(2-deoxy-1-β-D-ribofuranosyl)-3H-imidazo[4,5-b]pyridine (herein referred to as Compound IA) and 5-amino-7-(2-thienyl)-3-(2-deoxy-1-β-D-ribofuranosyl)-3H-imidazo[4,5-b]pyridine (herein referred to as Compound IB) for their cell growth inhibitory effect on cultured human fibrosarcoma HT-1080 cells and human fetal lung fibroblast (normal diploid fibroblast) WI-38 cells. These cells (1×10^4 cells/ml) were seeded in 96-well microplates (IWAKI) at 90 μl/well. After culturing at 37° C. for 3 to 4 hours, test compound solutions (10 μl each), which had been dissolved in PBS-5% DMSO and adjusted to various concentrations, were added and incubated at 37° C. for 72 hours. […] After incubation was continued at 37° C. for 16 hours, the absorbance at 570 nm was measured using a microplate reader to calculate % inhibition according to the following equation. % Inhibition=100×[1−(Abssample−Absbackground)/(Absnegative control−Absbackground)] […]
(§1) Abssample: Absorbance in the presence of test compound
(§2) Absbackground: Absorbance in the absence of cells and test compound
Absnegative control: Absorbance in the absence of test compound […]
In general terms: Formazan colour is commonly taken as a measure of viable cells.

Test [2] relates to cultured human fibrosarcoma HT-1080 cells. Description: MTT assay, cell growth inhibitory activity on cancer cells. Type of test: cell-based. The following applies: for higher growth inhibitory activity on cancer cells than on normal cells: HT-1080 cancer cells versus WI-38 normal cells, from IC50 values; for IC50: Homo sapiens, MTT assay, 72 hours incubation at 37° C., HT-1080 cells, value ± standard deviation. The method, then: MTT assay was performed to examine two test compounds, i.e., 7-(2-thienyl)-3-(2-deoxy-1-β-D-ribofuranosyl)-3H-imidazo[4,5-b]pyridine (herein referred to as Compound IA) and 5-amino-7-(2-thienyl)-3-(2-deoxy-1-β-D-ribofuranosyl)-3H-imidazo[4,5-b]pyridine (herein referred to as Compound IB) for their cell growth inhibitory effect on cultured human fibrosarcoma HT-1080 cells and human fetal lung fibroblast (normal diploid fibroblast) WI-38 cells. These cells (1×10^4 cells/ml) were seeded in 96-well microplates (IWAKI) at 90 μl/well. After culturing at 37° C. for 3 to 4 hours, test compound solutions (10 μl each), which had been dissolved in PBS-5% DMSO and adjusted to various concentrations, were added and incubated at 37° C. for 72 hours. To the wells containing these solutions, a PBS solution of MTT (5 mg/ml) was added in 25 μl volumes and incubated at 37° C. for an additional 2 hours, followed by addition of a 50% DMF-20% SDS solution in 100 μl to each well. After incubation was continued at 37° C. for 16 hours, the absorbance at 570 nm was measured using a microplate reader to calculate % inhibition according to the following equation. % Inhibition=100×[1−(Abssample−Absbackground)/(Absnegative control−Absbackground)] [Expression 2]
as §1, §2
Absnegative control: Absorbance in the absence of test compound
The concentration (IC50 μM) required for each test compound to cause 50% inhibition of cell growth was calculated from a concentration-inhibition curve. The IC50 values are shown in Table 1 below, along with their standard deviation.

On to `OC[C@H]1O[C@@H](n2cnc3c(-c4cccs4)ccnc32)C[C@H]1O` [Compound IA, 7-(2-thienyl)-3-(2-deoxy-1-β-D-ribofuranosyl)-3H-imidazo[4,5-b]pyridine], for which the half-maximal inhibitory concentration (IC50) in test [1] came out at 290 ± 130 µM. Moreover, in test [2], the “higher growth inhibitory activity on cancer cells than on normal cells” value was “about 5 fold” and half-maximal inhibition (IC50) required 62 µM.

Turning to `Nc1cc(-c2cccs2)c2ncn([C@H]3C[C@@H](O)[C@@H](CO)O3)c2n1` [Compound IB, 5-amino-7-(2-thienyl)-3-(2-deoxy-1-β-D-ribofuranosyl)-3H-imidazo[4,5-b]pyridine], the midpoint of inhibition in test [1], the IC50, lay at 330 ± 40 µM. Further, in test [2], the “higher growth inhibitory activity on cancer cells than on normal cells” value is reported as “about 10 fold” and inhibition was half-maximal at 34 µM (IC50).

What is called IC50 is the concentration at which inhibition is half-maximal. The low end stands for higher potency, the high end for lower potency.
